According to patent US20260146035A1, “FUSED BICYCLIC COMPOUNDS AND THEIR USE AS MER AND AXL INHIBITORS” (DONG-A ST CO., LTD., priority 2022, published 2026):

How the values were obtained:
[1] = target: T1, human MER (528-end) (Homo sapiens, UniProt Q12866); test: HTRF kinase activity biochemical assay, MER; details: 10 μM ATP, 30 minutes pre-incubation; read-out: HTRF MERTK IC50
T1 construct: human MER (528-end); purchased Camnabio, Japan
T1 sequence (Q12866 528-999 limits assumed): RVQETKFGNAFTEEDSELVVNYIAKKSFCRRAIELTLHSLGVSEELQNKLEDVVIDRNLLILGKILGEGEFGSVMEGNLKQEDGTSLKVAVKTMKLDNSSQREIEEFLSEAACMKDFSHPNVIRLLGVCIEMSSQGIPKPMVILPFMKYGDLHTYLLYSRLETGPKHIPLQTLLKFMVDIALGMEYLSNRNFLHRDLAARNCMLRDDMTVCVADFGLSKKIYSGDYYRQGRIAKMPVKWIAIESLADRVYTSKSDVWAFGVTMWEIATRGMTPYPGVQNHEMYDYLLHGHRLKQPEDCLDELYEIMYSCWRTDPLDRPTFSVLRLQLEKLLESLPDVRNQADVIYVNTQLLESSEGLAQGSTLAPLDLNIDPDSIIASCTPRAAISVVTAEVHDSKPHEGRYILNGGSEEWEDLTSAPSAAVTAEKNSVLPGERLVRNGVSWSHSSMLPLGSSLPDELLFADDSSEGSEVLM

[2] = target: T2, human AXL (473-end) (Homo sapiens, UniProt P30530); test: HTRF kinase activity biochemical assay, AXL; details: 10 μM ATP, 30 minutes pre-incubation
T2 construct: human AXL (473-end); purchased SignalChem, Canada
T2 sequence (P30530 473-894 limits assumed): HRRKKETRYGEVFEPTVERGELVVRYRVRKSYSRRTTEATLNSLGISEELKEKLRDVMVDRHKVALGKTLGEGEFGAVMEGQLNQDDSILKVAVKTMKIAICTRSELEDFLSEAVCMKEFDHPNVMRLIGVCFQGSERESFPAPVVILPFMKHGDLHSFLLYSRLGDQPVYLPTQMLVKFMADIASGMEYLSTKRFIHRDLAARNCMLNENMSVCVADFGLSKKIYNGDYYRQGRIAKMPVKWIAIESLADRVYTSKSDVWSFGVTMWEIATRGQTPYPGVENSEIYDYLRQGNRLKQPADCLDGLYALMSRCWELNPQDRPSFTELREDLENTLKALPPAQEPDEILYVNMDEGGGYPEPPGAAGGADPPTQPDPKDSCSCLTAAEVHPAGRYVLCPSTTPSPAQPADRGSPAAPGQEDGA

[3] = target: T3, human TYRO3 (455-end) (Homo sapiens, UniProt Q06418); test: HTRF kinase activity biochemical assay, TYRO3; details: 10 μM ATP, 30 minutes pre-incubation; read-out: HTRF TYRO IC50
T3 construct: TYRO3 (455-end); purchased SignalChem, Canada
T3 sequence (Q06418 455-890 limits assumed): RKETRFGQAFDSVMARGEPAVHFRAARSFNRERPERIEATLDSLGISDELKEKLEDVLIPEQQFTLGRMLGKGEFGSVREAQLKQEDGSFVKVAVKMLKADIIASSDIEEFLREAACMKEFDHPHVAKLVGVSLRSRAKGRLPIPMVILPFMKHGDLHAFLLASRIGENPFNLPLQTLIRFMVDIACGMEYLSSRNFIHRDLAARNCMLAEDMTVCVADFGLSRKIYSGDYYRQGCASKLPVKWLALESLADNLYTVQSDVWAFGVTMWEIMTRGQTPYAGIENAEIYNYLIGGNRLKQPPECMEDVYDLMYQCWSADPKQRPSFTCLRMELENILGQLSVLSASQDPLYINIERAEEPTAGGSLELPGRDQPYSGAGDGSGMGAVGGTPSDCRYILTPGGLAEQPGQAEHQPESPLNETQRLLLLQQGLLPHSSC

Row | SMILES | IC50 [1] [nM] | IC50 [2] [nM] | IC50 [3] [nM]
1 | Cn1cc(-c2cnc(N)c(C(=O)N[C@H]3CCC[C@@H]3OCc3ccc(-c4ccc5c(ccn5C(F)F)c4)cc3)c2)cn1 [Example 64, 2-amino-N-[(1S,2S)-2-({4-[1-(difluoromethyl)-1H-indol-5-yl]phenyl}methoxy)cyclopentyl]-5-(1-methyl-1H-pyrazol-4-yl)pyridine-3-carboxamide] | < 10 | 10 to 100 | > 1000
2 | Cn1cc(-c2cnc(N)c(C(=O)N[C@H]3COC[C@@H]3OCc3ccc(-c4ccc5c(c4)C(C)(C)CN5C4CCN(CCO)CC4)cc3)c2)cn1 [Example 32, 2-amino-N-{(3S,4R)-4-[(4-{1-[1-(2-hydroxyethyl)piperidin-4-yl]-3,3-dimethyl-2,3-dihydro-1H-indol-5-yl}phenyl)methoxy]oxolan-3-yl}-5-(1-methyl-1H-pyrazol-4-yl)pyridine-3-carboxamide] | < 10 | < 10 | 10 to 100
3 | Cn1cc(-c2cnc(N)c(C(=O)N[C@H]3CCC[C@@H]3OCc3ccc(-c4ccc5c(ccn5CCO)c4)cc3)c2)cn1 [Example 57, 2-amino-N-[(1S,2S)-2-({4-[1-(2-hydroxyethyl)-1H-indol-5-yl]phenyl}methoxy)cyclopentyl]-5-(1-methyl-1H-pyrazol-4-yl)pyridine-3-carboxamide] | < 10 | 10 to 100 | > 1000
4 | Cn1cc(-c2cnc(N)c(C(=O)N[C@H]3C[C@H](O)C[C@@H]3OCc3ccc(-c4ccc5c(c4)C(C)(C)CN5C4CCN(CCO)CC4)cc3)c2)cn1 (relative stereo) [Example 38, rel-2-amino-N-{(1S,2S,4S)-4-hydroxy-2-[(4-{1-[1-(2-hydroxyethyl)piperidin-4-yl]-3,3-dimethyl-2,3-dihydro-1H-indol-5-yl}phenyl)methoxy]cyclopentyl}-5-(1-methyl-1H-pyrazol-4-yl)pyridine-3-carboxamide] | < 10 | < 10 | 10 to 100
5 | CN1CCC(n2ccc3cc(-c4ccc(CO[C@H]5CCC[C@@H]5NC(=O)c5cc(-c6cnn(C)c6)cnc5N)cc4)ccc32)CC1 [Example 6, 2-amino-N-[(1S,2S)-2-({4-[1-(1-methylpiperidin-4-yl)-1H-indol-5-yl]phenyl}methoxy)cyclopentyl]-5-(1-methyl-1H-pyrazol-4-yl)pyridine-3-carboxamide] | < 10 | < 10 | 100 to 1000
6 | CC1(C)CN(C2CCN(CCO)CC2)c2ccc(-c3ccc(CO[C@H]4CCC[C@@H]4NC(=O)c4cc(-c5ccc(F)nc5)cnc4N)cc3)cc21 [Example 31, 6-amino-6′-fluoro-N-{(1S,2S)-2-[(4-{1-[1-(2-hydroxyethyl)piperidin-4-yl]-3,3-dimethyl-2,3-dihydro-1H-indol-5-yl}phenyl)methoxy]cyclopentyl}[3,3′-bipyridine]-5-carboxamide] | < 10 | < 10 | 10 to 100
7 | Nc1ncc(-c2ccc(F)nc2)cc1C(=O)N[C@H]1CCC[C@@H]1OCc1ccc(-c2ccc3c(c2)CCC3N2CCN(CCO)CC2)cc1 (stereo partly drawn) [Example 19, 6-amino-6′-fluoro-N-{(1S,2S)-2-[(4-{1-[4-(2-hydroxyethyl)piperazin-1-yl]-2,3-dihydro-1H-inden-5-yl}phenyl)methoxy]cyclopentyl}[3,3′-bipyridine]-5-carboxamide] | < 10 | < 10 | 100 to 1000

Further lines, results first:

Row | IC50 [1] [nM] | IC50 [2] [nM] | IC50 [3] [nM] | SMILES
8 | < 10 | < 10 | > 1000 | Cn1cc(-c2cnc(N)c(C(=O)N[C@H]3CCC[C@@H]3OCc3ccc(-c4ccc5c(c4)C[C@H](F)[C@@H]5N4CCN(CCO)CC4)cc3)c2)ccc1=O (relative stereo) [Example 90, 6-amino-N-{(1S,2S)-2-[(4-{(1R*,2S*)-2-fluoro-1-[4-(2-hydroxyethyl)piperazin-1-yl]-2,3-dihydro-1H-inden-5-yl}phenyl)methoxy]cyclopentyl}-1′-methyl-6′-oxo-1′,6′-dihydro[3,3′-bipyridine]-5-carboxamide]
9 | 100 to 1000 | 100 to 1000 | > 1000 | Cn1cc(-c2cnc(N)c(C(=O)N[C@H]3CCC[C@@H]3OCc3ccc(-c4ccc5c(c4)NC(=O)C5N4CCN(CCO)CC4)cc3)c2)cn1 (stereo partly drawn) [Example 69, 2-amino-N-{(1S,2S)-2-[(4-{3-[4-(2-hydroxyethyl)piperazin-1-yl]-2-oxo-2,3-dihydro-1H-indol-6-yl}phenyl)methoxy]cyclopentyl}-5-(1-methyl-1H-pyrazol-4-yl)pyridine-3-carboxamide]
10 | < 10 | < 10 | 10 to 100 | Cn1cc(-c2cnc(N)c(C(=O)N[C@H]3CCC[C@@H]3OCc3ccc(-c4ccc5c(c4)CC[C@@H]5N4CCN(CC(O)CO)CC4)cc3)c2)cn1 (stereo partly drawn) [Example 98, 2-amino-N-{(1S,2S)-2-[(4-{(1S)-1-[4-(2,3-dihydroxypropyl)piperazin-1-yl]-2,3-dihydro-1H-inden-5-yl}phenyl)methoxy]cyclopentyl}-5-(1-methyl-1H-pyrazol-4-yl)pyridine-3-carboxamide]
11 | < 10 | 10 to 100 | > 1000 | CC1(C)OCC(CN2CCN(C3CCc4cc(-c5ccc(CO[C@H]6CCC[C@@H]6NC(=O)c6cc(-c7ccc(F)nc7)cnc6N)cc5)ccc43)CC2)O1 (stereo partly drawn) [Example 78, 6-amino-N-[(1S,2S)-2-{[4-(1-{4-[(2,2-dimethyl-1,3-dioxolan-4-yl)methyl]piperazin-1-yl}-2,3-dihydro-1H-inden-5-yl)phenyl]methoxy}cyclopentyl]-6′-fluoro[3,3′-bipyridine]-5-carboxamide]
12 | < 10 | < 10 | 100 to 1000 | Cn1cc(-c2cnc(N)c(C(=O)N[C@H]3CCC[C@@H]3OCc3ccc(-c4ccc5c(c4)C[C@H](F)[C@@H]5N4CCN(CCO)CC4)cc3)c2)cn1 (relative stereo) [Example 85, 2-amino-N-{(1S,2S)-2-[(4-{(1R*,2S*)-2-fluoro-1-[4-(2-hydroxyethyl)piperazin-1-yl]-2,3-dihydro-1H-inden-5-yl}phenyl)methoxy]cyclopentyl}-5-(1-methyl-1H-pyrazol-4-yl)pyridine-3-carboxamide]
13 | < 10 | 10 to 100 | 100 to 1000 | Cn1cc(-c2cnc(N)c(C(=O)N[C@H]3COC[C@@H]3OCc3ccc(-c4ccc5c(c4)C(C)(C)CN5C4CCN(CCO)CC4)cc3)n2)cn1 [Example 71, 3-amino-N-{(3S,4R)-4-[(4-{1-[1-(2-hydroxyethyl)piperidin-4-yl]-3,3-dimethyl-2,3-dihydro-1H-indol-5-yl}phenyl)methoxy]oxolan-3-yl}-6-(1-methyl-1H-pyrazol-4-yl)pyrazine-2-carboxamide]
14 | < 10 | < 10 | 100 to 1000 | Nc1ncc(-c2cccnc2F)cc1C(=O)N[C@H]1CCC[C@@H]1OCc1ccc(-c2ccc3c(c2)OCCC3N2CCN(CCO)CC2)cc1 (stereo partly drawn) [Example 134, 6-amino-2′-fluoro-N-{(1S,2S)-2-[(4-{4-[4-(2-hydroxyethyl)piperazin-1-yl]-3,4-dihydro-2H-1-benzopyran-7-yl}phenyl)methoxy]cyclopentyl}[3,3′-bipyridine]-5-carboxamide]
15 | < 10 | < 10 | 10 to 100 | CC1(C)CC(N2CCN(CCO)CC2)c2ccc(-c3ccc(CO[C@H]4CCC[C@@H]4NC(=O)c4cc(-c5ccc(F)nc5)cnc4N)cc3)cc21 (stereo partly drawn) [Example 84, 6-amino-6′-fluoro-N-{(1S,2S)-2-[(4-{1-[4-(2-hydroxyethyl)piperazin-1-yl]-3,3-dimethyl-2,3-dihydro-1H-inden-5-yl}phenyl)methoxy]cyclopentyl}[3,3′-bipyridine]-5-carboxamide]
